Results reported in the NIST ThermoML archive (doi:10.1021/je800930v).

Assay: xn = mol fraction of the nth substance listed
Conditions: 101 kPa, Liquid

CCCCO [butan-1-ol] + O=C(O)C1CC1
x2 = 0
Conditions | mass density [kg/m3] | viscosity [mPa·s]
298.15 K | 805.8 | 2.588
308.15 K | 798.08 | 1.991
318.15 K | 790.22 | 1.555
328.15 K | 782.17 | 1.228
338.15 K | 773.88 | 0.981

O=C(O)C1CC1 [cyclopropanecarboxylic acid] + CCCCO
Conditions | mass density, 298.15 K [kg/m3] | mass density, 308.15 K [kg/m3] | mass density, 318.15 K [kg/m3] | mass density, 328.15 K [kg/m3] | mass density, 338.15 K [kg/m3] | viscosity, 298.15 K [mPa·s] | viscosity, 308.15 K [mPa·s] | viscosity, 318.15 K [mPa·s] | viscosity, 328.15 K [mPa·s] | viscosity, 338.15 K [mPa·s]
x1 = 0.1 | 831.84 | 823.84 | 815.72 | 807.43 | 798.92 | 2.672 | 2.064 | 1.615 | 1.289 | 1.031
x1 = 0.2 | 858.24 | 850.01 | 841.64 | 833.15 | 824.46 | 2.782 | 2.145 | 1.689 | 1.339 | 1.081
x1 = 0.3 | 884.97 | 876.51 | 867.95 | 859.26 | 850.39 | 2.936 | 2.26 | 1.779 | 1.416 | 1.145
x1 = 0.4 | 912.03 | 903.36 | 894.6 | 885.74 | 876.73 | 3.091 | 2.374 | 1.863 | 1.488 | 1.207
x1 = 0.5 | 939.3 | 930.44 | 921.51 | 912.47 | 903.33 | 3.217 | 2.475 | 1.944 | 1.556 | 1.266
x1 = 0.6 | 966.97 | 957.92 | 948.81 | 939.61 | 930.34 | 3.319 | 2.558 | 2.016 | 1.62 | 1.324
x1 = 0.6987 | 994.72 | 985.5 | 976.22 | 966.86 | 957.46 | 3.386 | 2.616 | 2.079 | 1.671 | 1.37
x1 = 0.7996 | 1023.6 | 1014.15 | 1004.68 | 995.17 | 985.6 | 3.401 | 2.634 | 2.11 | 1.708 | 1.41
x1 = 0.9 | 1053 | 1043.31 | 1033.63 | 1023.94 | 1014.21 | 3.362 | 2.628 | 2.109 | 1.723 | 1.432
x1 = 1 | 1082.92 | 1072.97 | 1063.04 | 1053.12 | 1043.2 | 3.306 | 2.603 | 2.102 | 1.739 | 1.459

O=C(O)C1CC1 [cyclopropanecarboxylic acid] + CCCO
Conditions | mass density, 298.15 K [kg/m3] | mass density, 308.15 K [kg/m3] | mass density, 318.15 K [kg/m3] | mass density, 328.15 K [kg/m3] | mass density, 338.15 K [kg/m3] | viscosity, 298.15 K [mPa·s] | viscosity, 308.15 K [mPa·s] | viscosity, 318.15 K [mPa·s] | viscosity, 328.15 K [mPa·s] | viscosity, 338.15 K [mPa·s]
x1 = 0.1 | 832.12 | 823.73 | 815.19 | 806.46 | 797.48 | 2.118 | 1.667 | 1.325 | 1.068 | 0.87
x1 = 0.2 | 863.75 | 855.12 | 846.35 | 837.42 | 828.26 | 2.33 | 1.833 | 1.451 | 1.169 | 0.953
x1 = 0.3 | 894.25 | 885.41 | 876.46 | 867.36 | 858.07 | 2.568 | 2.002 | 1.583 | 1.276 | 1.041
x1 = 0.4138 | 927.62 | 918.58 | 909.45 | 900.17 | 890.75 | 2.82 | 2.19 | 1.733 | 1.396 | 1.141
x1 = 0.5001 | 952.13 | 942.95 | 933.7 | 924.34 | 914.85 | 2.988 | 2.317 | 1.834 | 1.481 | 1.211
x1 = 0.6 | 979.77 | 970.45 | 961.07 | 951.61 | 942.03 | 3.14 | 2.437 | 1.929 | 1.56 | 1.282
x1 = 0.7 | 1006.34 | 996.88 | 987.37 | 977.81 | 968.16 | 3.235 | 2.517 | 2.002 | 1.626 | 1.342
x1 = 0.8 | 1032.24 | 1022.8 | – | 1003.51 | 993.78 | 3.299 | 2.574 | 2.06 | 1.678 | 1.392
x1 = 0.9 | 1057.82 | 1048.15 | 1038.38 | 1028.6 | 1018.78 | 3.316 | 2.617 | 2.092 | 1.713 | 1.429
x1 = 1 | 1082.92 | 1072.97 | 1063.04 | 1053.12 | 1043.2 | 3.306 | 2.603 | 2.102 | 1.739 | 1.459
